IC50 data for 20 molecules are collected here from US8338594B2, “Pyrrolotriazine derivatives useful for treating cancer through inhibition of aurora kinase” (Bayer HealthCare LLC, priority 2005, dated 2012).

Each structure is given as a SMILES string.

The target of experiment [1] is T1, murine Aurora Kinase 2 (mAur2) (Mus musculus, UniProt P97477).
T1 construct: N-terminal His-tagged mAur2 (amino acids 98-395; DRT, Protein Sciences); His (N); made in house
T1 sequence (P97477 98-395): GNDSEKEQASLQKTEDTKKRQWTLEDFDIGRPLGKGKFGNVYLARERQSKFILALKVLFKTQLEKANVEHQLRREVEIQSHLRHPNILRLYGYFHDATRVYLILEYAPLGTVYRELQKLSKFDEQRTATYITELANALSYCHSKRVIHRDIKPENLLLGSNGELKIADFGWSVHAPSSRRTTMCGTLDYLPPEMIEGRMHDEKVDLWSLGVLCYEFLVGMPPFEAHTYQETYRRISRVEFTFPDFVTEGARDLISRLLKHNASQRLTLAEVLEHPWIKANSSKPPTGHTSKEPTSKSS
In words: murine Aurora Kinase 2 (mAur2) biochemical Scintillation Proximity Assay. To be noted: SPA, biotinylated Peptide 830, 1 μM ATP, 20 nM His-tagged mAur2. The protocol:
(§1) Using a Scintillation Proximity Assay (SPA) format, the murine Aurora Kinase 1 (mAur1) and murine Aurora Kinase 2 (mAur2) biochemical assay measures the ability of mAur2 to phosphorylate the substrate, biotinylated Peptide 830 (DRT, Protein Sciences). Once radiolabeled by the enzyme, the biotinylated substrate is captured on streptavidin-coated SPA beads and the radioactivity, in proximity to the SPA beads, is measured. For the generation of IC50 curves, the reaction was performed in 96-well isoplates (Wallac 1450-514) under the following conditions: a 10 mM stock solution of compound (in 100% dimethylsulfoxide; DMSO) was diluted 10 fold in 100% DMSO. Compounds were then serially diluted, 1:5, for an eight point dose curve, in 100% DMSO. A volume of 1 μL of the diluted compound was added to the reaction buffer that consisted of 25 mM HEPES pH 7.5, 1 mM MnCl2, 1 mM MgCl2, 1 mM DTT, 0.01% Tween20. A mixture with a final concentration per well of 1 μM cold ATP, 0.1 μCi ^33P-ATP (Amersham AH9968) and 1 μM biotinylated Peptide 830 was then added. The reaction was initiated with the addition of either recombinant, GST-tagged mAur 1 (amino acids 67-345) that was co-expressed with human INCENP (amino acids 704-919) (DRT, Protein Sciences) at a final concentration of 12 nM or N-terminal His-tagged mAur2 (amino acids 98-395; DRT, Protein Sciences) at a final concentration of 20 nM. The final reaction volume in each well was 100 μL and the final compound concentration ranged from 10 μM-[…] in 1% DMSO. The reaction mixture was allowed to incubate for 1-2 hours with gentle agitation at 25° C. To terminate the reaction, streptavidin-coated SPA beads (Amersham RPNQ0007; 50 μL of 0.5 mg beads dissolved in 165 mM EDTA) were then added to each well and incubation proceeded for an additional 15 minutes at 25° C. The plate was then centrifuged for ten minutes at 2000 rpm. Phosphorylation of the peptide substrate was measured using a Wallac 1450 Microbeta Plus Liquid Scintillation Counter.

In experiment [2] the target is T2, murine Aurora Kinase 1 (mAur1) (Mus musculus, UniProt O70126).
T2 construct: recombinant, GST-tagged mAur 1 (amino acids 67-345) that was co-expressed with human INCENP; GST; made in house
T2 sequence (O70126 67-345): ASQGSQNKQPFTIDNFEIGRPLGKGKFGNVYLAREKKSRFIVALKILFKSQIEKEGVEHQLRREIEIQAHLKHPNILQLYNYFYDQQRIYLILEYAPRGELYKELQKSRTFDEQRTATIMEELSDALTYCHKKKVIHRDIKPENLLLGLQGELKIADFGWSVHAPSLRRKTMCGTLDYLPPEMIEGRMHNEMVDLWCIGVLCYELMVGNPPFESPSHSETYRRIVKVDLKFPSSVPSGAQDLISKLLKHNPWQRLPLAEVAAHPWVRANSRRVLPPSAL
T2 sequence (Q9NQS7 704-918 partner): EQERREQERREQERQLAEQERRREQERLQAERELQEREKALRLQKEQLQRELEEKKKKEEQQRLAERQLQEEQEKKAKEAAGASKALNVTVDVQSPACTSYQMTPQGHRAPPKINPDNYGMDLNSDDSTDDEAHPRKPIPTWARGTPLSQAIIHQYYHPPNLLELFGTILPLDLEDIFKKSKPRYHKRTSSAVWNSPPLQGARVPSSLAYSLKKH
In words: murine Aurora Kinase 1 (mAur1) biochemical Scintillation Proximity Assay. The conditions noted are these: SPA, biotinylated Peptide 830, 1 μM ATP, 12 nM GST-tagged mAur 1 co-expressed with human INCENP. The protocol:
as §1
A general note: In a scintillation proximity assay essentially only radioactivity close to the scintillant gives light.

As a reminder, the IC50 is the midpoint of a concentration-inhibition curve. A lower IC50 goes with inhibition by little substance.

In the case of `Nc1ncnn2cc(C(=O)O)c(-c3ccc(Nc4nc5cc(F)cc(F)c5[nH]4)cc3)c12` [Example 71, 4-amino-5-{4-[(5,7-difluoro-1H-benzimidazol-2-yl)amino]phenyl}pyrrolo[2,1-f][1,2,4]triazine-6-carboxylic acid], the concentration for half-maximal inhibition (IC50) in experiment [1] and in experiment [2] was below 100 nM in each case.

Turning to `CCNC(=O)c1cn2ncnc(N)c2c1-c1ccc(Nc2nc3cc(F)cc(F)c3[nH]2)cc1` [Example 73, 4-amino-5-{4-[(5,7-difluoro-1H-benzimidazol-2-yl)amino]phenyl}-N-ethylpyrrolo[2,1-f][1,2,4]triazine-6-carboxamide], the half-maximal inhibitory concentration (IC50) in experiment [1] and in experiment [2] was below 100 nM each time.

For `CN(C)C(=O)c1cn2ncnc(N)c2c1-c1ccc(Nc2nc3cc(F)cc(F)c3[nH]2)cc1` [Example 74, 4-amino-5-{4-[(5,7-difluoro-1H-benzimidazol-2-yl)amino]phenyl}-N,N-dimethylpyrrolo[2,1-f][1,2,4]triazine-6-carboxamide], the IC50 in experiment [1] and in experiment [2] was below 100 nM in each case.

Consider `COCCNC(=O)c1cn2ncnc(N)c2c1-c1ccc(Nc2nc3cc(F)cc(F)c3[nH]2)cc1` [Example 75, 4-amino-5-{4-[(5,7-difluoro-1H-benzimidazol-2-yl)amino]phenyl}-N-(2-methoxyethyl)pyrrolo[2,1-f][1,2,4]triazine-6-carboxamide], for which the 50% inhibitory concentration (IC50) in experiment [1] and in experiment [2] was below 100 nM throughout.

Consider `Nc1ncnn2cc(C(=O)N3CCOCC3)c(-c3ccc(Nc4nc5cc(F)cc(F)c5[nH]4)cc3)c12` [Example 76, 5-{4-[(5,7-difluoro-1H-benzimidazol-2-yl)amino]phenyl}-6-(morpholin-4-ylcarbonyl)pyrrolo[2,1-f][1,2,4]triazin-4-amine], for which the IC50 in experiment [1] and in experiment [2] was below 100 nM in each case.

Turning to `Nc1ncnn2cc(C(=O)NCC3CC3)c(-c3ccc(Nc4nc5cc(F)cc(F)c5[nH]4)cc3)c12` [Example 80, 4-amino-N-(cyclopropylmethyl)-5-{4-[(5,7-difluoro-1H-benzimidazol-2-yl)amino]phenyl}pyrrolo[2,1-f][1,2,4]triazine-6-carboxamide], the IC50 in experiment [1] and in experiment [2] was below 100 nM in each case.

On to `NC(=O)C1CCN(C(=O)c2cn3ncnc(N)c3c2-c2ccc(Nc3nc4cc(F)cc(F)c4[nH]3)cc2)CC1` [Example 81, 1-[(4-amino-5-{4-[(5,7-difluoro-1H-benzimidazol-2-yl)amino]phenyl}pyrrolo[2,1-f][1,2,4]triazin-6-yl)carbonyl]piperidine-4-carboxamide], for which the half-inhibitory concentration (IC50) in experiment [1] and in experiment [2] was below 100 nM in each case.

For the molecule `Nc1ncnn2cc(C(=O)NC3CCCC3)c(-c3ccc(Nc4nc5cc(F)cc(F)c5[nH]4)cc3)c12` [Example 85, 4-amino-N-cyclopentyl-5-{4-[(5,7-difluoro-1H-benzimidazol-2-yl)amino]phenyl}pyrrolo[2,1-f][1,2,4]triazine-6-carboxamide], the concentration for half-maximal inhibition (IC50) in experiment [1] and in experiment [2] was below 100 nM throughout.

Consider `CCN(C)C(=O)c1cn2ncnc(N)c2c1-c1ccc(Nc2nc3cc(F)cc(F)c3[nH]2)cc1` [Example 89, 4-amino-5-{4-[(5,7-difluoro-1H-benzimidazol-2-yl)amino]phenyl}-N-ethyl-N-methylpyrrolo[2,1-f][1,2,4]triazine-6-carboxamide], for which the half-maximal inhibitory concentration (IC50) in experiment [1] and in experiment [2] was below 100 nM in each case.

For the molecule `CCN(C(=O)c1cn2ncnc(N)c2c1-c1ccc(Nc2nc3cc(F)cc(F)c3[nH]2)cc1)C(C)C` [Example 90, 4-amino-5-{4-[(5,7-difluoro-1H-benzimidazol-2-yl)amino]phenyl}-N-ethyl-N-isopropylpyrrolo[2,1-f][1,2,4]triazine-6-carboxamide], the IC50 in experiment [1] and in experiment [2] was below 100 nM throughout.

As to `COCC1CCCN1C(=O)c1cn2ncnc(N)c2c1-c1ccc(Nc2nc3cc(F)cc(F)c3[nH]2)cc1` (stereo not shown) [Example 91, 5-{4-[(5,7-difluoro-1H-benzimidazol-2-yl)amino]phenyl}-6-{[2-(methoxymethyl)pyrrolidin-1-yl]carbonyl}pyrrolo[2,1-f][1,2,4]triazin-4-amine], the concentration for half-maximal inhibition (IC50) in experiment [1] and in experiment [2] was below 100 nM throughout.

For the molecule `CC(C)N(C)C(=O)c1cn2ncnc(N)c2c1-c1ccc(Nc2nc3cc(F)cc(F)c3[nH]2)cc1` [Example 92, 4-amino-5-{4-[(5,7-difluoro-1H-benzimidazol-2-yl)amino]phenyl}-N-isopropyl-N-methylpyrrolo[2,1-f][1,2,4]triazine-6-carboxamide], the IC50 in experiment [1] and in experiment [2] was below 100 nM in each case.

Regarding `CCCN(C)C(=O)c1cn2ncnc(N)c2c1-c1ccc(Nc2nc3cc(F)cc(F)c3[nH]2)cc1` [Example 93, 4-amino-5-{4-[(5,7-difluoro-1H-benzimidazol-2-yl)amino]phenyl}-N-methyl-N-propylpyrrolo[2,1-f][1,2,4]triazine-6-carboxamide], the IC50 in experiment [1] and in experiment [2] was below 100 nM throughout.

Regarding `Nc1ncnn2cc(C(=O)N3CCCC3)c(-c3ccc(Nc4nc5cc(F)cc(F)c5[nH]4)cc3)c12` [Example 96, 5-{4-[(5,7-difluoro-1H-benzimidazol-2-yl)amino]phenyl}-6-(pyrrolidin-1-ylcarbonyl)pyrrolo[2,1-f][1,2,4]triazin-4-amine], the IC50 in experiment [1] and in experiment [2] was below 100 nM throughout.

As to `Nc1ncnn2cc(C(=O)O)c(-c3ccc(Nc4nc5ccc(Oc6ccccc6)c(F)c5[nH]4)cc3)c12` [Example 101, 4-amino-5-{4-[(7-fluoro-6-phenoxy-1H-benzimidazol-2-yl)amino]phenyl}pyrrolo[2,1-f][1,2,4]triazine-6-carboxylic acid], the IC50 in experiment [1] and in experiment [2] was below 100 nM in each case.

As for `Nc1ncnn2cc(C(=O)NC3CC3)c(-c3ccc(Nc4nc5ccc(Oc6ccccc6)c(F)c5[nH]4)cc3)c12` [Example 105, 4-amino-N-cyclopropyl-5-{4-[(7-fluoro-6-phenoxy-1H-benzimidazol-2-yl)amino]phenyl}pyrrolo[2,1-f][1,2,4]triazine-6-carboxamide], the IC50 in experiment [1] and in experiment [2] was below 100 nM in each case.

On to `CCN(C)C(=O)c1cn2ncnc(N)c2c1-c1ccc(Nc2nc3ccc(Oc4ccccc4)c(F)c3[nH]2)cc1` [Example 106, 4-amino-N-ethyl-5-{4-[(7-fluoro-6-phenoxy-1H-benzimidazol-2-yl)amino]phenyl}-N-methylpyrrolo[2,1-f][1,2,4]triazine-6-carboxamide], for which the IC50 in experiment [1] and in experiment [2] was below 100 nM throughout.

For `Nc1ncnn2cc(C(=O)N3CCCCC3)c(-c3ccc(Nc4nc5ccc(Oc6ccccc6)c(F)c5[nH]4)cc3)c12` [Example 107, 5-{4-[(7-fluoro-6-phenoxy-1H-benzimidazol-2-yl)amino]phenyl}-6-(piperidin-1-ylcarbonyl)pyrrolo[2,1-f][1,2,4]triazin-4-amine], the IC50 in experiment [1] and in experiment [2] was below 100 nM throughout.

On to `Nc1ncnn2cc(C(=O)N3CCOCC3)c(-c3ccc(Nc4nc5ccc(Oc6ccccc6)c(F)c5[nH]4)cc3)c12` [Example 108, 5-{4-[(7-fluoro-6-phenoxy-1H-benzimidazol-2-yl)amino]phenyl}-6-(morpholin-4-ylcarbonyl)pyrrolo[2,1-f][1,2,4]triazin-4-amine], for which the IC50 in experiment [1] and in experiment [2] was below 100 nM throughout.

For the molecule `COCCNC(=O)c1cn2ncnc(N)c2c1-c1ccc(Nc2nc3ccc(Oc4ccccc4)c(F)c3[nH]2)cc1` [Example 110, 4-amino-5-{4-[(7-fluoro-6-phenoxy-1H-benzimidazol-2-yl)amino]phenyl}-N-(2-methoxyethyl)pyrrolo[2,1-f][1,2,4]triazine-6-carboxamide], the half-inhibitory concentration (IC50) in experiment [1] and in experiment [2] was below 100 nM in each case.
